# Source: patent US10753947B2, “Methods for screening voltage-gated proteins” (D.E. Shaw Research, LLC, priority 2012, dated 2020)
# Read-outs that look alike come from different tables or passages of the source.
# Key:
# Kv1.3 = Kv1.3 (Homo sapiens, UniProt P22001); conditions: cited from earlier work
# Kv1.1 = Kv1.1 (Homo sapiens, UniProt Q09470); conditions: Table 4; read-out: IC50 Kv1.1; cited from earlier work
# Kv1.2 = Kv1.2 (Homo sapiens, UniProt P16389); conditions: Table 4; read-out: IC50 Kv1.2; cited from earlier work
# Kv1.2, sequence (P16389 whole entry): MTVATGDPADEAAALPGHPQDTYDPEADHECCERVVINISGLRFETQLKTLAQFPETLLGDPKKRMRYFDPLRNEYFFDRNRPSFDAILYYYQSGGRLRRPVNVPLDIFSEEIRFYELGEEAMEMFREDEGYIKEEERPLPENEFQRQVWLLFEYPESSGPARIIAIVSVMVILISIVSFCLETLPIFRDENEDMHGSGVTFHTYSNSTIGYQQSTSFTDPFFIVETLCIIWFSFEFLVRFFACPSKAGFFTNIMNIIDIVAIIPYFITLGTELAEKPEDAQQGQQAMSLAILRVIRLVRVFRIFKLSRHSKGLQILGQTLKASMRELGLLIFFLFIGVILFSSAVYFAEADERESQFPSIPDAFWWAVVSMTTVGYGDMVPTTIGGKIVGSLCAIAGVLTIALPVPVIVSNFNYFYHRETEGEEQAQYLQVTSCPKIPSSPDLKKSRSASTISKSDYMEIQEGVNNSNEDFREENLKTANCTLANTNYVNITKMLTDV
# Kv1.5 = Kv1.5 (Homo sapiens, UniProt P22460); conditions: Table 4; cited from earlier work
# Kv1.5, sequence (P22460 whole entry): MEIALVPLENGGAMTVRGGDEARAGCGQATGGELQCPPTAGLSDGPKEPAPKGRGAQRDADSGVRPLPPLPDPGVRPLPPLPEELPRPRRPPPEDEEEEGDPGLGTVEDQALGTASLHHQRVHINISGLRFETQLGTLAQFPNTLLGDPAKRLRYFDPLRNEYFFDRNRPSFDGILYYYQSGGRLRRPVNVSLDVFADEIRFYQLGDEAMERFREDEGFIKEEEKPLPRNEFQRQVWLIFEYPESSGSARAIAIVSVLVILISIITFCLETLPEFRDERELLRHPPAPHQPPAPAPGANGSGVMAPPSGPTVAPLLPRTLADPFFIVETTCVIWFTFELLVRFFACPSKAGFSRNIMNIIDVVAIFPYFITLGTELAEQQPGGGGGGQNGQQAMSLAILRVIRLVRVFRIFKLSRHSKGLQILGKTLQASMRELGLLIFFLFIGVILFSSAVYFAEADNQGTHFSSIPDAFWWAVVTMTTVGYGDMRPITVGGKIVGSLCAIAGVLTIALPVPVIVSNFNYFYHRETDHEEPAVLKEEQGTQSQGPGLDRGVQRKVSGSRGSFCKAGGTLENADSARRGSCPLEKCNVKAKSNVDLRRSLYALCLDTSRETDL
# KCa3.1 = KCa3.1 (Homo sapiens, UniProt O15554); conditions: Table 4; cited from earlier work
# KCa3.1, sequence (O15554 whole entry): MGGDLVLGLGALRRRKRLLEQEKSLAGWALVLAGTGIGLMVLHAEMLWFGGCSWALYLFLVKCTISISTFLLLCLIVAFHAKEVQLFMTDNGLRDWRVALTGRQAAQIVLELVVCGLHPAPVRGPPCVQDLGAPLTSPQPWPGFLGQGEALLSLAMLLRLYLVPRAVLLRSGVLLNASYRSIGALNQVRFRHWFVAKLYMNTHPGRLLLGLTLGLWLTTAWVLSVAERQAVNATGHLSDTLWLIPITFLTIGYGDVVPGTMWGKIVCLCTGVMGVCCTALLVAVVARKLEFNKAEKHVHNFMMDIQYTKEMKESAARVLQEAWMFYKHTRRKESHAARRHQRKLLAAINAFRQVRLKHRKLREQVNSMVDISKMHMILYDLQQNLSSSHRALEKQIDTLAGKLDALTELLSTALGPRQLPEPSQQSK
# Nav = conditions: Table 4; read-out: IC50 Others: Nav; cited from earlier work
# [1] = biological target: T1, Shaker R362S with alpha pore open (R1S) (Drosophila melanogaster, UniProt P08510, DUP563-563/L584V/Q583H/R362S); assay: Omega currents (Iω) of Shaker R1S in Xenopus oocytes, two electrode voltage-clamp; type: cell-based; conditions: 30, 100 and 300 μM La3+; test pulses +60 mV to -300 mV, holding -50 mV
# T1 construct: expressed in transfected cells; host or cells: Xenopus oocytes injected with cRNA (vector pBSTA)
# T1 sequence (P08510 with tags, fused parts or gaps R362S/DUP563-563/Q583H/L584V): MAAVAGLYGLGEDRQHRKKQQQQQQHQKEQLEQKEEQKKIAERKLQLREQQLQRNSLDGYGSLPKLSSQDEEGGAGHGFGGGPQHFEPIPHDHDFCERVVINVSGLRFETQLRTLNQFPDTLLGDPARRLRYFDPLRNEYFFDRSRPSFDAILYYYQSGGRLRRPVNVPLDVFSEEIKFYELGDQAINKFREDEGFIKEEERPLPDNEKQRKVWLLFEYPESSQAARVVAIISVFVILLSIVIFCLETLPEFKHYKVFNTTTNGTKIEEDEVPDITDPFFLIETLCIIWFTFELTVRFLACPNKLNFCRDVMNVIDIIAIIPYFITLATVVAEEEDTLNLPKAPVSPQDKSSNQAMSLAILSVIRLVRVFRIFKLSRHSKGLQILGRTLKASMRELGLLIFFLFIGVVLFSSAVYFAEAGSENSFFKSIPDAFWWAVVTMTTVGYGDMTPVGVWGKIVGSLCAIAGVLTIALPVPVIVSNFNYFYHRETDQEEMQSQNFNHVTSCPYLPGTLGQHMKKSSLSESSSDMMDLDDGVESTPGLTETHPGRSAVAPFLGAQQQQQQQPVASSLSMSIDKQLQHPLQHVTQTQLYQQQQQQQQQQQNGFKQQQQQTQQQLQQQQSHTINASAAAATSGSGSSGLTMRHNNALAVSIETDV
# Text: (§1) The coding cDNAs of Shaker “wild-type” (hereinafter WT) base construct (Shaker H4, with intact inactivation), Shaker R362S with alpha pore open (hereinafter R1S) and Shaker with the alpha pore closed by mutation W434F (herein after R1S/W434F) were cloned into a high expression vector pBSTA. The C-terminus of all constructs was tagged with eGFP. Transcripted cRNA was produced using the mMessage mMachine kit (Ambion Inc.).
# (§2) Two to four days past injection of cRNA into stage V-VI Xenopus oocytes (NASCO), omega currents (Iω) and currents through the alpha pore (Iα) were recorded with the two electrode voltage-clamp technique making use of a TURBO TEC-05× amplifier (npi electronic GmbH). Currents were filtered at 10 kHz and sampled at 20 kHz. The bath solution contained (in mM): NaCl 96, KCl 2, CaCl2 1, MgCl2 1 and HEPES 5 (pH 7.5). Voltage-recording and current-injecting microelectrodes were filled with 3 M KCl and pulled to have resistances between 0.2 and 1 MΩ (see Stork et al., 2007). The pClamp software package v.10.1 (Molecular Devices, Inc.) was used for data acquisition and analysis.
# (§3) Pulses (20 ms) from +60 to ˜300 mV were applied in 20 mV steps at 1 Hz from a holding potential of either −80 mV (WT, R1S/W434F) or ˜50 mV (R1S) (see FIG. 34B) to measure omega currents (Iω) without leak subtraction. […]
# [2] = biological target: T2, Shaker R1S/W434F (alpha pore closed) (Drosophila melanogaster, UniProt P08510, DUP563-563/L584V/Q583H/R362S/W434F); assay: Omega currents (Iω) of Shaker R1S/W434F in Xenopus oocytes, two electrode voltage-clamp; type: cell-based; conditions: 100 μM La3+, steps from -80 mV to -200 mV, 20 ms pulses at 1 Hz
# T2 construct: expressed in transfected cells; host or cells: Xenopus oocytes injected with cRNA (vector pBSTA)
# T2 sequence (P08510 with tags, fused parts or gaps R362S/W434F/DUP563-563/Q583H/L584V): as the sequence (P08510 with tags, fused parts or gaps R362S/DUP563-563/Q583H/L584V) above, with W434F counted along it
# Text: as §1, §2, §3
# [3] = tested on: Kv2.1 R293S/R294S/R300S (R-1S/R0S/R2S); assay: Omega currents (Iω) of Kv2.1 R-1S/R0S/R2S in Xenopus oocytes, two electrode voltage-clamp; type: cell-based, human
# Text: The coding cDNAs of KV2.1 “wild-type” (hereinafter WT) base construct (hKv2.1-m7-c3 is human Kv2.1, residues 1-858, mutated to confer AgTx2 sensitivity and to remove extracellular cysteine residues) was synthesized (Entelchon GmbH) and cloned into the high expression vector pBSTA.
# Mutations Kv2.1 R294N (hereinafter R0N), Kv2.1 R300S (hereinafter R2S), Kv2.1 R294C/R300S (hereinafter R0C/R2S), Kv2.1 R293S/R294S (hereinafter R-1S/R0S), Kv2.1 R293S/R294C (hereinafter R-1S/R0C), Kv2.1 R293S/R294S/R300S (hereinafter R-1S/R0S/R2S), Kv2.1 R293S/R294C/R300S (hereinafter R-1S/R0C/R2S) were introduced using the QuikChange® Lightning Site-Directed Mutagenesis Kit (Stratagene) with mutagenic primers according to the manufacturer's instructions. All constructs were checked by restriction site mapping and sequencing.
# as §2, with “Transcripted cRNA was produced using the mMessage mMachine kit (Ambion Inc.). Two” for “Two”, “(NASCO) potassium” for “(NASCO), omega currents (Iω) and”
# Recording of alpha currents (Iα): Pulses of 100 ms were applied from ˜60 to +60 mV in 10 mV steps at 1 Hz from a holding potential of ˜80 mV to the Kv2.1 channel constructs to measure alpha currents (Iα). Passive leak currents were subtracted online using a P/4 procedure: pClamp software generates a series of scaled-down replica sweeps of the main stimulus waveform. […] The cell's response to the subsweeps is used to calculate the degree of passive cellular current leak. This is then subtracted from acquired data on the associated input signal. Recording of omega currents (Iω): Pulses of 10 ms were applied from a holding potential of ˜80 to ˜300 mV in 20 mV steps at 0.3 Hz to the Kv2.1 channel constructs. Iω were recorded without leak subtraction.
# AgTx2 (Sigma Aldrich) was reconstituted according to manufacturer's instructions with 10 mM Tris, pH 7.5, containing 100 mM sodium chloride, 0.1% bovine serum albumin, and 1 mM EDTA. LaCl3 was from Sigma Aldrich; MTSEA, MTSES and MTSET were from Biotium.
# La^3+, AgTx2, MTSEA, MTSES and MTSET and were applied to Xenopus oocytes by means of a fast perfusion technique (ScreeningTool as described by Baburin et al., 2006). Origin software v.7.0 (OriginLab Corp.) was employed for data analysis. Inhibition of inward currents was defined as 1−Iω,drug/Iω,control, where Iω,drug is the current response in the presence of a given concentration of lanthanum (La^3+) and Iω, control is the control current through the omega pore. The concentration-inhibition curve was fitted using the Hill equation: Iω,drug/Iω,control=A+[…] where IC50 is the concentration at which Iω inhibition is half-maximal, C is the applied La^3+ concentration, A is the fraction of Iω current that blocked and nH is the Hill coefficient. Data are given as mean±SE (n=number of experiments).
# Kv1.4 = Kv1.4 (Homo sapiens, UniProt P22459); conditions: Table 4; read-out: IC50 Others: Kv1.4; cited from earlier work
# Kv1.4, sequence (P22459 whole entry): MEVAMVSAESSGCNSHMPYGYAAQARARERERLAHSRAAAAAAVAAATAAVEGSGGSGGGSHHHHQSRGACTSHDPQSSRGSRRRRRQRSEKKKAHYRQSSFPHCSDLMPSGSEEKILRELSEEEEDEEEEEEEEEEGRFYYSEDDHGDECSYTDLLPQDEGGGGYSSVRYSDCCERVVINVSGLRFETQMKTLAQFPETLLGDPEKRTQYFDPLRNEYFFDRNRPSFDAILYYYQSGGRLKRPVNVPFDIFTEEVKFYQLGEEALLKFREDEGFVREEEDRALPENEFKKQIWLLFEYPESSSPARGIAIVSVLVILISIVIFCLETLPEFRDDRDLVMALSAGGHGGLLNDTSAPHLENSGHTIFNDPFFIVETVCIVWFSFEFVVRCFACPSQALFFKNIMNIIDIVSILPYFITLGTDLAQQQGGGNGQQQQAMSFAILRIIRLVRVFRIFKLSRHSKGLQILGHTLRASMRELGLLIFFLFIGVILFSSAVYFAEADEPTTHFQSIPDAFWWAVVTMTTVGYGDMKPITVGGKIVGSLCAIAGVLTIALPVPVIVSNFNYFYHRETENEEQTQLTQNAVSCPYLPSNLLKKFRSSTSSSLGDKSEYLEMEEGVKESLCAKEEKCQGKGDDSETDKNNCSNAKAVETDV
# Kv3.2 = biological target: T3, Kv3.2 (Homo sapiens, UniProt Q96PR1); conditions: Table 4; read-out: IC50 Others: Kv3.2; cited from earlier work
# T3 sequence (Q96PR1 1-638): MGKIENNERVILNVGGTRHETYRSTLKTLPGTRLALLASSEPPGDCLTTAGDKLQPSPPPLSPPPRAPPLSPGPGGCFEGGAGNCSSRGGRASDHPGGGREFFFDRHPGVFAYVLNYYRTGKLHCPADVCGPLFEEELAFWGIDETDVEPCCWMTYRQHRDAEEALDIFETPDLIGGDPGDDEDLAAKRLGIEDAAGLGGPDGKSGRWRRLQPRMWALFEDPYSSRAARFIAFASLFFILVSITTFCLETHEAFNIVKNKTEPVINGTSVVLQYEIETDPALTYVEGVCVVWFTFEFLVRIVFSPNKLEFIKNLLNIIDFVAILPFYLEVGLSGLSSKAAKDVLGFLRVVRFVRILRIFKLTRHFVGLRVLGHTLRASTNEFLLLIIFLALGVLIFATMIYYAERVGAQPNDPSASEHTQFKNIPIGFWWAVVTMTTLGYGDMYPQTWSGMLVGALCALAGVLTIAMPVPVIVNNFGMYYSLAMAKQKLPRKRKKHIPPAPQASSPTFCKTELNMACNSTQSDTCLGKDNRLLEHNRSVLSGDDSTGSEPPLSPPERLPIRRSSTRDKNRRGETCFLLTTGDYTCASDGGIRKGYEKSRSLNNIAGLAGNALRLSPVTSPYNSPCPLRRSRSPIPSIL
# [4] = Table 2, modulating Kv1.3 ion conductance, read-out: IC50
# Kv1.3, sequence (P22001 whole entry): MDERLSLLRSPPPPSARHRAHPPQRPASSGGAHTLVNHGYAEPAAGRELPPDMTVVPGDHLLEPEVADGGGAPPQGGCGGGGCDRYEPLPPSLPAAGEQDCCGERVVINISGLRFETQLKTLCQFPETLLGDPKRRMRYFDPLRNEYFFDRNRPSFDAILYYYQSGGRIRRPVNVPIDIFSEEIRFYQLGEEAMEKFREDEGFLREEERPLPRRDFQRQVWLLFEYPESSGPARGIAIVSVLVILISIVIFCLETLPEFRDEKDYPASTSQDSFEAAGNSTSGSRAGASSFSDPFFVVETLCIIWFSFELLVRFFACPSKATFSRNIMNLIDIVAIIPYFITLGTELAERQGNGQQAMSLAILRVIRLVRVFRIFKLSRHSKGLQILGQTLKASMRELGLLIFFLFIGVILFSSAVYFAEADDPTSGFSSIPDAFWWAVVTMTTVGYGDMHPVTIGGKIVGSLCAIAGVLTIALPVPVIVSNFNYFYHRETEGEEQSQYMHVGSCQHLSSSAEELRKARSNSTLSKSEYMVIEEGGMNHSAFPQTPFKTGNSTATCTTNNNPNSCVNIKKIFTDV
# Kv1.1, sequence (Q09470 whole entry): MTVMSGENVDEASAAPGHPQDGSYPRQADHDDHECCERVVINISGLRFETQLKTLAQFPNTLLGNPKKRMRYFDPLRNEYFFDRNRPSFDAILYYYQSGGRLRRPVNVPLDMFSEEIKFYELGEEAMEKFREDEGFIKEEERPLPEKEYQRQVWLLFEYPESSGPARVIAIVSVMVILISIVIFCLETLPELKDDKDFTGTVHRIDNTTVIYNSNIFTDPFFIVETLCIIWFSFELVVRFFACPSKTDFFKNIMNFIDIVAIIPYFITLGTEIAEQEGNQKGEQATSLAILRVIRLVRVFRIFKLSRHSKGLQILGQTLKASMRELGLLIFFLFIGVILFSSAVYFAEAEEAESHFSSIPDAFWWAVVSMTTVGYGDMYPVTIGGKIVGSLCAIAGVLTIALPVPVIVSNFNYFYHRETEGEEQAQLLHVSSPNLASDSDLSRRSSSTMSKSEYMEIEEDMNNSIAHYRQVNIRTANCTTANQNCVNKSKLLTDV
SMILES,IC50 (Kv1.3; [4]) [nM],"IC50 (Kv1.3; Table 4, read-out: IC50 Kv1.3) [nM]",IC50 (Kv1.1) [nM],IC50 (Kv1.2) [nM],IC50 (Kv1.5) [nM],IC50 (KCa3.1) [nM],IC50 (Nav) [nM],Block of omega current (Iω) of R1S Shaker [1],Block of Iω during the first pulse [2] [%],Block of omega currents at steady state ([2]; 5 oocytes) [%],Block of inward currents at negative potentials (Iω) ([3]; 30 μM to 10 mM La3+),"Hill coefficient nH ([3]; inward currents after 5 ms at -300 mV, Hill fit)",IC50 (Kv1.4) [nM],IC50 (Kv3.2) [nM]
CCCCC/N=c1\ccn(Cc2ccccc2)c2ccccc12 [CP-339818],150,230,62000,14000,19000,> 500000,10,–,–,–,–,–,–,–
"O.O.O.O.O.O.O.[Cl-].[Cl-].[Cl-].[La+3] [La3+, Lanthanum(III) chloride heptahydrate]",–,–,–,–,–,–,–,blocked in a concentration-dependent manner,31.8±3.6,51.5±5.9,blocked,0.8±0.1,–,–
COc1ccc(CCCN2CCC(COC(c3ccccc3)c3ccccc3)CC2)cc1 [UK-78282],200,–,22000,2900,70,> 30000,–,–,–,–,–,–,300,127000
